Assay results published in US20060275812A1, “Assay for agonists and antagonists of ion channels and for regulators of genetic expression” (University of Pittsburgh of the Commonwealth System of …, priority 2005, published 2006).
“Also recorded” adds a separate entry of the source.

Key:
rat TRPV1 receptor = rat TRPV1 receptor (Rattus norvegicus, UniProt O35433); assay: Whole cell patch clamp recordings of capsaicin induced currents
TRPV1 [1] = molecular target: T1, TRPV1 (Rattus norvegicus, UniProt O35433); assay: Intracellular calcium measurement (FURA-2); assay type: cell-based
T1 construct: expressed in transfected cells; host or cells: ICP4/ICP27-complementing 7b cells (Vero-derived) infected with HSV-1 vector vTT
T1 sequence (O35433 whole entry): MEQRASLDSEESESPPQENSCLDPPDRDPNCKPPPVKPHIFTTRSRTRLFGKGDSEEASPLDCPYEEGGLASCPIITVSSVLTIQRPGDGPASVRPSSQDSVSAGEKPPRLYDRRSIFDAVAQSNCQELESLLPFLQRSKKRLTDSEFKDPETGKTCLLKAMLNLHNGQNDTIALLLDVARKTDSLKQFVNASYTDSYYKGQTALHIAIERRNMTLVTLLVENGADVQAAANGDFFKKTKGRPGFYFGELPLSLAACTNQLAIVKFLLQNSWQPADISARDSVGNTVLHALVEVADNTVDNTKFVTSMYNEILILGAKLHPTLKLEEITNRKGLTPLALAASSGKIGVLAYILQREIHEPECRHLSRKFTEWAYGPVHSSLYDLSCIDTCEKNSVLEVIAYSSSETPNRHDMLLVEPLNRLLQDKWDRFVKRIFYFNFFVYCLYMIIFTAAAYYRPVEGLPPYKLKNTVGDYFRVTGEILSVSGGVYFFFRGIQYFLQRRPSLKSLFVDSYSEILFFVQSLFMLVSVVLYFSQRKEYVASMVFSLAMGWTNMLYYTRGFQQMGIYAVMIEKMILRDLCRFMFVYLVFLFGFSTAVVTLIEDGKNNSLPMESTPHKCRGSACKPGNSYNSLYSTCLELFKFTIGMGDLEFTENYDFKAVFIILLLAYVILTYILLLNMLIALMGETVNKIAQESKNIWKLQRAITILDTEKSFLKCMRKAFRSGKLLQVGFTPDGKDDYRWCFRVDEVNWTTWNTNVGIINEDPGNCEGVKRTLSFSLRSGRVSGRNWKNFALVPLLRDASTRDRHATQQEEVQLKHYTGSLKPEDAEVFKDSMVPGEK
Protocol: Free intracellular calcium was measured by photon scanning on a dual excitation fluorimeter (PTI, Lawrenceville, N.J.). vTT or QOZ infected 7b cells were plated in 6 well plates containing 13.5×20 mm coverslips. Infected cells (8 hpi, 3 PFU/cell) were rinsed with 1× Hank's balanced salt solution (HBSS) and loaded with 2 μM FURA-2 (Molecular Probes Inc., Eugene, Oreg.) (Sneddon et al., 2000) for 1 hour at 37° C. in a 5% CO2 incubator. Coverslips with FURA-2 loaded cells were then placed in a cuvette containing HBBS and then separately subjected to capsaicin at either 3 or 0.3 μM concentrations. Calcium flux following the application of each concentration of capsaicin was measured at 2 Hz and graphed. Results were calibrated by adding 5 μM ionomycin to obtain the maximum fluorescence ratio, followed by addition of 10 mM EGTA to obtain the minimum fluorescence ratio. A Kd of FURA-2 for calcium of 224 nM was assumed.

TRPV1 [2] = molecular target: T1, TRPV1; assay: Viral growth assay (vTT / vHG titers by plaque assay); assay type: cell-based
TRPV1 [3] = molecular target: T1, TRPV1; assay: Capsaicin selection against vTT in mixed vHG:vTT infections; assay type: cell-based
[4] = vTT infected cells, BIM pre-incubation, n=3
[5] = vTT infected cells, mean±SEM, n=8
[6] = vTT infected 7b cells, 5 μM ionomycin

Sequence of rat TRPV1 receptor (O35433 whole entry): as above

CN(C)CCCn1cc(C2=C(c3c[nH]c4ccccc34)C(=O)NC2=O)c2ccccc21.Cl [BIM, bisindolylmaleimide I HCl]
effect of pre-incubation on capsaicin currents (rat TRPV1 receptor; vTT infected 7b cells, compared to BIM untreated): significantly lower amplitude and rapidly desensitizing currents | Capsaicin (nA) (rat TRPV1 receptor; [4]): −2.2 ± 1.2 nA | Capsaicin Desensitization Time-course (tau, s) (rat TRPV1 receptor; [4]): 53.4 ± 15.4 s

O=C(O)CN(CCOCCOCCN(CC(=O)O)CC(=O)O)CC(=O)O [EGTA]
intracellular calcium signal after capsaicin and ionomycin (TRPV1 [1]; vTT infected 7b cells, 10 mM EGTA): return to baseline levels

CCCC(=O)O[C@@H]1[C@@H](C)[C@@]2(O)[C@@H](C=C(CO)C[C@]3(O)C(=O)C(C)=C[C@@H]23)[C@@H]2C(C)(C)[C@]12OC(=O)CCC [PDBu, phorbol 12,13-dibutyrate]
effect on capsaicin current after the first phase of desensitization (rat TRPV1 receptor; vTT infected 7b cells, PDBu 5 μM): did not affect the current; also recorded: could not be enhanced

C=C(C)[C@]12C[C@@H](C)[C@@]34O[C@](Cc5ccccc5)(O[C@@H]1[C@@H]3C=C(COC(=O)Cc1ccc(O)c(OC)c1)C[C@]1(O)C(=O)C(C)=C[C@@H]41)O2 [RTX, resiniferatoxin]
growth ratio (GR), highest observed difference (TRPV1 [2]; 1 μM RTX, 72 hpi, p<0.05, n=4): 474 | capsaicin dose relative to RTX dose giving similar reduction in vTT viral titers (TRPV1 [2]; nanomolar RTX, all time points): ~100 fold

COc1cccc(NC(=O)/C=C/c2ccc(Cl)cc2)c1 [SB-366791]
vTT viral titers in the presence of capsaicin (TRPV1 [2]; 1 μM and 10 μM SB-366791 + 0.5 μM capsaicin, all time points, p<0.05, n=4): dose dependent rescue | replication of control vector vHG (TRPV1 [2]; CAP and SB-366791 together): did not affect | replication of vHG or vTT, antagonist alone (TRPV1 [2]; SB-366791 alone at 1 and 10 μM): did not affect

COc1cc(CNC(=O)CCCC/C=C/C(C)C)ccc1O [capsaicin]
intracellular calcium response (TRPV1 [1]; QOZ (control) infected cells, 0.3 or 3 μM capsaicin): no effect | intracellular calcium (TRPV1 [1]; vTT infected 7b cells, 8 hpi, 3 μM capsaicin): significant increase | intracellular calcium response (TRPV1 [1]; vTT infected 7b cells, 0.3 μM capsaicin, versus 3 μM): smaller response | lowest concentration with significant differences in replication between vHG and vTT (TRPV1 [2]): 0.3 µM | vTT replication (TRPV1 [2]): specifically inhibited | vHG titers (TRPV1 [2]; 3 μM CAP alone): without affecting | growth ratio (GR), vHG to vTT virus yield, greatest differential (TRPV1 [2]; 3 μM capsaicin, 72 hpi, p<0.05, n=4): ~500 fold | vHG (GFP+) percent output after two passages (TRPV1 [3]; 3 μM capsaicin, 0.005% vHG input (1:20,000 vHG:vTT)): 95% | vHG (GFP+) percent output after one passage (TRPV1 [3]; 3 μM capsaicin, 0.005% vHG input (1:20,000 vHG:vTT), 72 hpi): 66% | vHG proportion after two passages (TRPV1 [3]; capsaicin, 1:100,000 vHG input): 40% | Capsaicin (nA) (rat TRPV1 receptor; no virus (uninfected cells)): No | response to capsaicin stimulation (rat TRPV1 receptor; vHG (control) infected 7b cells): do not respond; also recorded: did not respond | Capsaicin (nA) (rat TRPV1 receptor; vHG infected cells): No | inward current following stimulation with capsaicin (rat TRPV1 receptor; vTT infected 7b cells, 0.5 μM capsaicin, FIG. 3 trace): 9 nA | Capsaicin (nA) (rat TRPV1 receptor; [5]): −6.0 ± 0.6 nA | Capsaicin Desensitization Time-course (tau, s) (rat TRPV1 receptor; [5]): 280.6 ± 45.1 s

C[C@H](CCC(=O)O)C[C@H](C)C[C@H](C)C(=O)/C=C(\O)[C@H](C)C[C@H](C)C/C=C/[C@@H](C)[C@@H](O)[C@@H](C)[C@@H](O)C[C@@H]1CC[C@@](C)([C@H]2CC[C@@](C)([C@@H](C)O)O2)O1 [ionomycin]
calcium influx (TRPV1 [1]; QOZ infected cells, 5 μM ionomycin): maximal calcium influx | intracellular calcium response after 0.3 μM capsaicin (TRPV1 [1]; [6]): further increased | intracellular calcium response after 3 μM capsaicin (TRPV1 [1]; [6]): did not further increase

N.N.N.N.N.N.N.N.N.N.N.N.N.N.[Cl-].[Cl-].[Cl-].[Cl-].[Cl-].[Cl-].[O-2].[O-2].[Ru+3].[Ru+3].[Ru+4] [ruthenium red]
replication of vTT in the presence of capsaicin (TRPV1 [2]): completely restored | vector replication, antagonist alone (TRPV1 [2]): unaffected | antagonism of capsaicin-induced vTT specific currents (rat TRPV1 receptor; vTT infected 7b cells, RuR 5 μM in FIG. 3): brought the current back to baseline; also recorded: antagonized
